# Assay results taken from article PMC8117302 (Breast Cancer Research : BCR, 2021).
# Several values for one entry are separate records, joined by “and”; a condition that tells them apart may be missing. Equal values may be shown once.
# Tests used:
# [1] = tested on: MCF7 WT ERα tumors; assay: MIND xenograft dose-response study, MCF7 WT ERα; format: in vivo, NSG mice; settings: vehicle 4%, p = NS
# [2] = tested on: MCF7 Y537S ERα tumors; assay: MIND xenograft combination study, MCF7 Y537S ERα, bone histology; format: in vivo, NSG mice; settings: for tumor metastases to the bone (H&E and IHC staining of bone marrow): Y537S model, 5 mg/kg LAS, in contrast to vehicle control, 5 mg/kg
# [3] = tested on: MCF7 D538G ERα tumors; assay: MIND xenograft dose-response study, MCF7 D538G ERα; format: in vivo, NSG mice; settings: for liver metastases (H&E): D538G mice
# [4] = tested on: MCF7 Y537S ERα tumors; assay: MIND xenograft dose-response study, MCF7 Y537S ERα; format: in vivo, NSG mice; settings: 5 and 10 mg/kg s.c. 5 days/week, at sacrifice 70 days after treatment initiation, vs vehicle
# Description: Mouse studies were performed in compliance with an approved Institutional Animal Care and Use Committee protocol at the University of Chicago. To better mimic the progression of ductal lesions to invasive disease, a mammary intraductal (MIND) mouse model was used. NSG (NOD.Cg-Prkdc^scid Il2rg^tm1Wjl/SzJ) mice (Jackson Laboratories) were anesthetized by intraperitoneal injections with a ketamine/xylazine (100/5 mg/kg) mixture in PBS prior to cancer cell injections. Single-cell suspensions of 250,000 WT or mutant MCF7 cells were injected in the mammary ducts of inguinal glands as previously described. Tumor cell growth in situ was followed once weekly or biweekly after injection via luminescence imaging with a Xenogen IVIS 200 instrument in the Integrated Small Animal Imaging Research Resource at the University of Chicago. […] Effects were evaluated in the models expressing WT, Y537S, and D538G ERα for monotherapies, and in the model expressing Y537S ERα for combination therapies.
# Treatment was initiated 2 to 3 weeks (dose-response study) or at day 20 (combination study) after cancer cell injections. […] Metastases were evaluated with ex vivo imaging of excised long bones, brains, lungs, and livers and quantified by luciferase activity for the combination study.
# Tissues were harvested and fixed in formalin. […] Lung and bone metastases were analyzed using the NSI-Elements software from Nikon. […]
# [5] = tested on: breast cancer; settings: PEARL trial, 5 years of LAS; cited from earlier work
# [6] = fulvestrant 5 mg/mouse, 10 legs examined
# [7] = lasofoxifene 5 mg/kg, 10 legs examined
# [8] = lasofoxifene 10 mg/kg, 10 legs examined
# [9] = palbociclib 35 mg/kg, 12 legs examined
# [10] = palbociclib 70 mg/kg, 12 legs examined
compound,measurement,setting,value
C[C@]12CC[C@@H]3c4ccc(O)cc4C[C@@H](CCCCCCCCC[S+]([O-])CCCC(F)(F)C(F)(F)F)[C@H]3[C@@H]1CC[C@@H]2O (stereo partly shown) [Fulvestrant],average percent area of lung metastasis,[1]; 5 mg/mouse s.c. once per week,1%
same,Number of legs with metastases,[2]; [6],2
same,Number of legs with necrosis,[2]; [6],1
same,% necrosis,"[2]; fulvestrant 5 mg/mouse, leg with necrosis",18%
same,"Metastases, % of bone marrow, for each leg with metastasis","[2]; fulvestrant 5 mg/mouse, listed as FUL",1% and 10%
same,liver metastases (H&E),[3]; FUL 5 mg/mouse s.c. once per week,no liver metastases were observed
Oc1ccc2c(c1)CC[C@H](c1ccccc1)[C@@H]2c1ccc(OCCN2CCCC2)cc1 [Lasofoxifene],Reduction in tumor weight,[4],approximately 60%
same,average percent area of lung metastasis,"[1]; all tested doses (1, 5, 10 mg/kg s.c. 5 days/week)",0.9–1.5%
same,tumor metastases to the bone (H&E and IHC staining of bone marrow),[2],No metastases were observed
same,tumor metastases to the bone (H&E and IHC staining of bone marrow),[2]; listed as LAS,completely blocked
same,Number of legs with metastases,[2]; [7],none
same,Number of legs with necrosis,[2]; [7],none
same,Number of legs with metastases,[2]; [8],none
same,Number of legs with necrosis,[2]; [8],none
same,reduced risk for invasive ER+ breast cancer,[5],83%
same,reduced risk for total breast cancers,[5],79%
same,liver metastases (H&E),"[3]; LAS 1, 5, 10 mg/kg s.c. 5 days/week",no liver metastases were observed
same,Reduction in tumor weight,"[3]; D538G, 5 and 10 mg/kg s.c. 5 days/week, at sacrifice 70 days after treatment initiation, vs vehicle",~50%
CC(=O)c1c(C)c2cnc(Nc3ccc(N4CCNCC4)cn3)nc2n(C2CCCC2)c1=O [Palbociclib],Number of legs with metastases,[2]; [9],none
same,Number of legs with necrosis,[2]; [9],none
same,Number of legs with metastases,[2]; [10],none
same,Number of legs with necrosis,[2]; [10],none
